Earlier results in paper PMC3826081 (Journal of the American Chemical Society, 2013).

Molecular target: PG9
Details: read-out: Kd for binding of PG9; NMR studies; glycan-Asn alone; cited from earlier work

CC(=O)N[C@@H]1[C@@H](O)[C@H](O[C@@H]2O[C@H](CO)[C@@H](O[C@@H]3O[C@H](CO[C@H]4O[C@H](CO[C@H]5O[C@H](CO)[C@@H](O)[C@H](O)[C@@H]5O)[C@@H](O)[C@H](O[C@H]5O[C@H](CO)[C@@H](O)[C@H](O)[C@@H]5O)[C@@H]4O)[C@@H](O)[C@H](O[C@H]4O[C@H](CO)[C@@H](O)[C@H](O)[C@@H]4O)[C@@H]3O)[C@H](O)[C@H]2NC(C)=O)[C@@H](CO)O[C@H]1NC(=O)C[C@H](N)C(=O)O [Man5GlcNAc2–Asn]
Kd: 1 to 2 mM
